{
  "source": "patent US20090298897A1",
  "about": "“Treatment of Inflammatory Disorders With Triazole Compounds” (priority 2006, published 2009)",
  "key": {"[1]": {"system": "moderate to severe facial acne vulgaris", "experiment": "Treatment of acne vulgaris with oral rambazole (lesion counts)", "type": "in vivo, human", "conditions": "for Table 5 (untitled, lesion count per subject): individual subjects; for No. of Responders (≧50% reduction in inflammatory lesions): of 16 subjects", "description": "Sixteen patients with moderate to severe facial acne vulgaris received a daily oral dose of 1 mg of rambazole for 12 weeks. […] The average lesion reduction was 79%. See Tables 3 through 7 for additional individual data. See FIGS. 5 and 6, respectively, for a comparison of the response to treatment of inflammatory lesions versus non-inflammatory lesions."}, "[2]": {"system": "SLS-induced irritant dermatitis", "experiment": "Irritant dermatitis induced by sodium lauryl sulfate (SLS)", "type": "in vivo, human", "conditions": "0.35% gel, 4 days pre-treatment and 5 days during 2% SLS; healthy volunteers", "description": "Rambazole (0.35%) gel was applied as a pre-treatment during four days. Inflammation was induced by applying 2% SLS during 2 hours in rings on the arm of twelve healthy volunteers once a day for five days. Rambazole (0.35%) gel was applied during the five days of induced inflammation. Skin reactions of non-treated and rambazole gel-treated skin sites were assessed 24 hours after each application with SLS and 72 hours after the last SLS application (visual scoring of redness, chromametry, TEWL)."}, "[3]": {"system": "moderate to severe plaque type psoriasis", "experiment": "Treatment of psoriasis with oral rambazole (PASI score)", "type": "in vivo, human", "conditions": "for % PASI Score from Baseline: individual subjects", "description": "Seventeen patients with a Psoriasis Area and Severity Index (PASI) score of at least 5 (moderate to severe plaque type psoriasis) received a daily oral dose of 1 mg of rambazole. The evolution of the PASI score was monitored after 1, 2, 4 and 8 weeks of treatment and at the end of a 2-week follow-up period. […] Biopsies from lesions were taken and surface markers were analyzed."}, "[4]": {"system": "IL-12p40", "experiment": "IL-12 secretion by activated monocytes (IL-12p40 ELISA)", "type": "cell-based, human", "conditions": "monocytes activated with Zymosan or 19 kDa lipoprotein for 18 h", "description": "Peripheral blood mononuclear cells (PBMC) were isolated from healthy donors by density gradient centrifugation on Ficoll-Hypaque Plus and monocytes were selected by adherence. After overnight culture in RPMI 1640 supplemented with […] FBS, monocytes were activated with Zymosan or 19 kDa lipoprotein for 18 h, and IL-12p40 was measured in the supernatant by ELISA."}},
  "note": "Where “and” joins values, the source holds several entries; their conditions need not be identical. Identical values can stand only once. Entries after “also recorded” stand apart in the source; their conditions may differ.",
  "data": [
    {"smiles": "CCC(CC)C(c1ccc(Nc2nc3ccccc3s2)cc1)n1cncn1", "note": "(centres unmarked) [rambazole]", "values": [
      {"measurement": "Table 3 (untitled, lesion count), Mean", "setting": "[1]; Visit No. 6, N 16", "result": 12.8},
      {"measurement": "Table 3 (untitled, lesion count), Median", "setting": "[1]; Visit No. 6, N 16", "result": 13.5},
      {"measurement": "Table 3 (untitled, lesion count), Min.", "setting": "[1]; Visit No. 6, N 16", "result": 0},
      {"measurement": "Table 4 (untitled, change of Table 3 count versus Visit 2), Max.", "setting": "[1]; Visit No. 6, N 16", "result": "−12"},
      {"measurement": "Table 4 (untitled, change of Table 3 count versus Visit 2), Mean", "setting": "[1]; Visit No. 6, N 16", "result": "−43.4"},
      {"measurement": "Table 4 (untitled, change of Table 3 count versus Visit 2), Median", "setting": "[1]; Visit No. 6, N 16", "result": "−34.0"},
      {"measurement": "Table 4 (untitled, change of Table 3 count versus Visit 2), Min.", "setting": "[1]; Visit No. 6, N 16", "result": "−165"},
      {"measurement": "Table 6 (untitled, summary of Table 5 lesion count), Max.", "setting": "[1]; Visit No. 6, N 16", "result": 65},
      {"measurement": "Table 6 (untitled, summary of Table 5 lesion count), Mean", "setting": "[1]; Visit No. 6, N 16", "result": 22.6},
      {"measurement": "Table 6 (untitled, summary of Table 5 lesion count), Median", "setting": "[1]; Visit No. 6, N 16", "result": 26.0},
      {"measurement": "Table 6 (untitled, summary of Table 5 lesion count), Min.", "setting": "[1]; Visit No. 6, N 16", "result": 0},
      {"measurement": "Table 7 (untitled, change of Table 6 count versus Visit 2), Max.", "setting": "[1]; Visit No. 6, N 16", "result": "−22"},
      {"measurement": "Table 7 (untitled, change of Table 6 count versus Visit 2), Mean", "setting": "[1]; Visit No. 6, N 16", "result": "−58.6"},
      {"measurement": "Table 7 (untitled, change of Table 6 count versus Visit 2), Median", "setting": "[1]; Visit No. 6, N 16", "result": "−58.5"},
      {"measurement": "Table 7 (untitled, change of Table 6 count versus Visit 2), Min.", "setting": "[1]; Visit No. 6, N 16", "result": "−165"},
      {"measurement": "Table 5 (untitled, lesion count per subject)", "setting": "[1]; Visit No. 6", "result": "0 (2×) and 1 (2×) and 3 (2×) and 25 and 37 and 22 and 34 (2×) and 29 and 41 and 40 and 27 and 65"},
      {"measurement": "Table 3 (untitled, lesion count), Max.", "setting": "[1]; Visit No. 7, N 16", "result": 56},
      {"measurement": "Table 3 (untitled, lesion count), Mean", "setting": "[1]; Visit No. 7, N 16", "result": 13.3},
      {"measurement": "Table 3 (untitled, lesion count), Median", "setting": "[1]; Visit No. 7, N 16", "result": 8.0},
      {"measurement": "Table 3 (untitled, lesion count), Min.", "setting": "[1]; Visit No. 7, N 16", "result": 0},
      {"measurement": "Table 4 (untitled, change of Table 3 count versus Visit 2), Max.", "setting": "[1]; Visit No. 7, N 16", "result": "−14"},
      {"measurement": "Table 4 (untitled, change of Table 3 count versus Visit 2), Mean", "setting": "[1]; Visit No. 7, N 16", "result": "−42.9"},
      {"measurement": "Table 4 (untitled, change of Table 3 count versus Visit 2), Median", "setting": "[1]; Visit No. 7, N 16", "result": "−35.0"},
      {"measurement": "Table 4 (untitled, change of Table 3 count versus Visit 2), Min.", "setting": "[1]; Visit No. 7, N 16", "result": "−159"},
      {"measurement": "Table 6 (untitled, summary of Table 5 lesion count), Max.", "setting": "[1]; Visit No. 7, N 16", "result": 71},
      {"measurement": "Table 6 (untitled, summary of Table 5 lesion count), Mean", "setting": "[1]; Visit No. 7, N 16", "result": 21.3},
      {"measurement": "Table 6 (untitled, summary of Table 5 lesion count), Median", "setting": "[1]; Visit No. 7, N 16", "result": 13.5},
      {"measurement": "Table 6 (untitled, summary of Table 5 lesion count), Min.", "setting": "[1]; Visit No. 7, N 16", "result": 0},
      {"measurement": "Table 7 (untitled, change of Table 6 count versus Visit 2), Max.", "setting": "[1]; Visit No. 7, N 16", "result": "−22"},
      {"measurement": "Table 7 (untitled, change of Table 6 count versus Visit 2), Mean", "setting": "[1]; Visit No. 7, N 16", "result": "−59.9"},
      {"measurement": "Table 7 (untitled, change of Table 6 count versus Visit 2), Median", "setting": "[1]; Visit No. 7, N 16", "result": "−52.5"},
      {"measurement": "Table 7 (untitled, change of Table 6 count versus Visit 2), Min.", "setting": "[1]; Visit No. 7, N 16", "result": "−178"},
      {"measurement": "Table 5 (untitled, lesion count per subject)", "setting": "[1]; Visit No. 7", "result": "0 (2×) and 4 and 2 and 1 and 5 and 38 and 25 and 39 and 6 and 35 and 21 and 71 and 31 and 60 and 3"},
      {"measurement": "Percent Responders (≧50% reduction in inflammatory lesions)", "setting": "[1]; Week 4, 1 mg oral daily", "result": 31, "unit": "%"},
      {"measurement": "No. of Responders (≧50% reduction in inflammatory lesions)", "setting": "[1]; Week 4", "result": 5},
      {"measurement": "Percent Responders (≧50% reduction in inflammatory lesions)", "setting": "[1]; Week 8, 1 mg oral daily", "result": 56, "unit": "%"},
      {"measurement": "No. of Responders (≧50% reduction in inflammatory lesions)", "setting": "[1]; Week 8", "result": 9},
      {"measurement": "Percent Responders (≧50% reduction in inflammatory lesions)", "setting": "[1]; Week 12, 1 mg oral daily", "result": 100, "unit": "%"},
      {"measurement": "No. of Responders (≧50% reduction in inflammatory lesions)", "setting": "[1]; Week 12", "result": 16},
      {"measurement": "Percent Responders (≧50% reduction in inflammatory lesions)", "setting": "[1]; Week 16 (follow-up)", "result": 88, "unit": "%"},
      {"measurement": "No. of Responders (≧50% reduction in inflammatory lesions)", "setting": "[1]; Week 16 (follow-up)", "result": 14},
      {"measurement": "average lesion reduction", "setting": "[1]; after 12 weeks, 1 mg oral daily", "result": 79, "unit": "%"},
      {"measurement": "time within which inflammatory lesions responded", "setting": "[1]; rambazole-treated inflammatory lesions, in contrast with retinoids such as isotretinoin", "result": "≤ 4", "unit": "weeks"},
      {"measurement": "inflammatory response induced by application of SLS (visual scoring of redness, chromametry, TEWL)", "setting": "[2]", "result": "inhibits the inflammatory response"},
      {"measurement": "side effects / tolerability", "setting": "[3]; daily oral dose 1 mg, psoriasis patients", "result": "mild to moderate; also recorded: well tolerated"},
      {"measurement": "time lesions continue to improve and show reduced inflammatory patterns after discontinuation of treatment", "setting": "[3]; rambazole-treated lesions such as psoriatic lesions", "result": "at least 3 months"},
      {"measurement": "mean reduction in PASI score", "setting": "[3]; subjects that completed 8 weeks of treatment, daily oral dose 1 mg", "result": 51.4, "unit": "%"},
      {"measurement": "% PASI Score from Baseline", "setting": "[3]; week 1, 1 mg oral daily", "result": "100% (4×) and 93% and 81% and 88% and 80% and 92% (2×) and 113% and 87% and 97% and 89% (2×) and 79% and 108%"},
      {"measurement": "% PASI Score from Baseline", "setting": "[3]; week 2, 1 mg oral daily", "result": "99% and 86% (2×) and 95% and 79% and 108% and 75% and 92% (2×) and 150% and 96% and 88% and 89% and 77% and 98% and 83% and 117%"},
      {"measurement": "% PASI Score from Baseline", "setting": "[3]; week 4, 1 mg oral daily", "result": "99% and 88% and 81% and 57% and 84% (2×) and 78% and 104% and 85% and 97% and 70% and 69% and 80% and 60% and 107% and 206%"},
      {"measurement": "% PASI Score from Baseline", "setting": "[3]; week 8, 1 mg oral daily", "result": "96% and 55% and 109% and 47% and 67% and 73% and 62% and 79% and 43% and 35% and 34% and 41% and 86% and 97%"},
      {"measurement": "% PASI Score from Baseline", "setting": "[3]; week 10 (end of 2-week follow-up)", "result": "81% and 27% and 105% and 51% and 36% and 49% and 45% and 37% and 73% and 52% and 4% and 34% and 28% and 70% and 87%"},
      {"measurement": "IL-12 secretion (IL-12p40 in supernatant)", "setting": "[4]", "result": "dose-dependently suppressed; also recorded: suppression of IL-12"}
    ]}
  ]
}
